This is an account of results in US11661434B2, “Phosphate of platinum compound and preparation method therefor” (Beijing Showby Pharmaceutical Co., LTD., priority 2018, dated 2023).

A short description of series [1]: hygroscopicity experiments of various salts. The class given is physicochemical. The note with it: 25° C. ± 1° C.
The conditions of series [2]: known platinum drugs; cited from earlier work.
Series [3] can be described thus: pH value of compound, salts and lyophilized preparations. Format: physicochemical. The note with it: compound or its salts. How it is done: The solution was stirred for 10 min, and then stood for adsorption for 20 min, followed by filtering with a 0.22 μm microfiltration membrane, and then was placed into 2 ml vials. Each vial was filled with 1 ml of the solution, which was then lyophilized to obtain the product at the specification of 20 mg/vial. The product was a white loose block, with a pH value of 4.10.
100) ml of water for injection was added at a low temperature (2-8° C.) to dissolve the compound, and 2.0 g of activated carbon for medicinal use was added. The solution was stirred for 10 min, and then stood for adsorption for 20 min, followed by filtering with a 0.22 μm microfiltration membrane, and then was placed into 2 ml vials. Each vial was filled with 1 ml of the solution, which was then lyophilized to obtain the product at the specification of 100 mg/vial.
100 ml of sodium dihydrogen phosphate-disodium hydrogen phosphate buffer (pH of 6.0) was added at a low temperature (2-8° C.) to dissolve the compound, and 0.5 g of activated carbon for medicinal use was added. The solution was stirred for 10 min, and then stood for adsorption for 20 min, followed by filtering with a 0.22 μm microfiltration membrane, and then was placed into 2 ml vials. Each vial was filled with 1 ml of the solution, which was then lyophilized to obtain the product at the specification of 200 mg/vial.

Where [4] appears, read: relative humidity 44% ± 2%, 1 h.
The mark [5] stands for this setting: relative humidity 44% ± 2%, 24 h.
The mark [6] stands for this setting: relative humidity 69% ± 2%, 1 h.
The mark [7] stands for this setting: relative humidity 69% ± 2%, 24 h.

On to `CCN(CC)CCCCC1C(=O)[O][Pt]2([NH][C@@H]3CCCC[C@H]3[NH]2)[O]C1=O.O=C(O)/C=C/C(=O)O` (stereo partly shown) [Fumarate salt], for which the Hygroscopicity is reported as 5.87% in series [1] (setting [4]), 10.83% in series [1] (setting [5]), 6.83% in series [1] (setting [6]) and 13.90% in series [1] (setting [7]). Further, the Status entry in series [1] (setting [4]) is listed as “Viscous”; in series [1] (setting [5]), “Semi-”; in series [1] (setting [6]) it was “Viscous”; in series [1] (setting [7]), “Semi-”.
Consider `CCN(CC)CCCCC1C(=O)[O][Pt]2([NH][C@@H]3CCCC[C@H]3[NH]2)[O]C1=O.CS(=O)(=O)O` (stereo partly drawn) [Mesylate salt, 2-(4-diethylamino)butylmalonato-(1R,2R)-(−)-1,2-cyclohexanediamine platinum(II) mesylate], for which the Hygroscopicity in series [1] (setting [4]) worked out at 4.98%; in series [1] (setting [5]), 9.89%; in series [1] (setting [6]), 6.37%; in series [1] (setting [7]) it was 13.89%. Besides, the Status entry in series [1] (setting [4]) is “Viscous”; in series [1] (setting [5]) it was “Light gray”; in series [1] (setting [6]) it was “Viscous”; in series [1] (setting [7]) it was “Light gray”.
As for `CCN(CC)CCCCC1C(=O)[O][Pt]2([NH][C@@H]3CCCC[C@H]3[NH]2)[O]C1=O.O=C(O)[C@H](O)[C@@H](O)C(=O)O` (stereo partly drawn) [L(+) tartrate salt, 2-(4-diethylamino)butylmalonato-(1R,2R)-(−)-1,2-cyclohexanediamine platinum(II) L-(+) tartrate], the Hygroscopicity is on record as 4.88% in series [1] (setting [4]), 9.76% in series [1] (setting [5]), 5.78% in series [1] (setting [6]) and 12.79% in series [1] (setting [7]). For the same compound, the Status entry in series [1] (setting [4]) is recorded as “Viscous”; in series [1] (setting [5]), “Light gray”; in series [1] (setting [6]) it was “Viscous”; in series [1] (setting [7]), “Light”.
Regarding `CCN(CC)CCCCC1C(=O)[O][Pt]2([NH][C@@H]3CCCC[C@H]3[NH]2)[O]C1=O.Cc1ccc(S(=O)(=O)O)cc1` (stereo partly drawn) [Tosylate salt, 2-(4-diethylamino)butylmalonato-(1R,2R)-(−)-1,2-cyclohexanediamine platinum(II) tosylate], the Hygroscopicity in series [1] (setting [4]) is reported as 4.56%; in series [1] (setting [5]), 8.78%; in series [1] (setting [6]), 5.30%; in series [1] (setting [7]), 9.86%. For the same compound, the Status result in series [1] (setting [4]) is reported as “Viscous”; in series [1] (setting [5]) it was “Light”; in series [1] (setting [6]) it was “Viscous”; in series [1] (setting [7]), “Light”.
Turning to `N.N.O=C([O-])C1(C(=O)[O-])CCC1.[Pt+2]` [carboplatin], the solubility in series [2] was 17.8 mg/mL.
In the case of `CCN(CC)CCCCC1C(=O)[O][Pt][O]C1=O.N[C@@H]1CCCC[C@H]1N` [Example 1, (4-diethylamino)butylmalonato-(1R,2R)-(−)-1,2-cyclohexanediamine platinum(II)], the pH value result in series [3] was “greater than 10”.
